These results are taken from US20240245677A1, “SELECTED COMPOUNDS FOR TARGETED DEGRADATION OF BRD9” (C4 THERAPEUTICS, INC., priority 2021, published 2024).

A short description of data set [1]: Compression and ball-milling experiments. The class given is physicochemical. On the procedure:
Feasibility of formulation processes was evaluated with compression and ball-milling experiments. […] However, the hydrate Form N is sensitive to pressure.

Data set [2] can be described thus: Variable humidity XRPD (VH-XRPD) experiments. The settings on record: listed as Pattern N. The class given is physicochemical. On the procedure:
Based on DVS results, variable humidity XRPD was conducted for Pattern A at different humidity conditions, including 40%, 70%, 90%, 70%, 40%, 20%, 0%, 40% RH conditions.
Based on DVS results, variable humidity XRPD was conducted for Pattern N, at different humidity conditions, including 40%, 70%, 90%, 70%, 40%, 20%, 0%, 40% RH conditions.

A short description of data set [3]: Bulk stability study (1 week stress conditions; drying).
Data set [4] in a line: Hygroscopicity by DVS at 25° C. The class given is physicochemical. The settings on record: DVS 25° C., from 40% RH to 80% RH. On the procedure: Hygroscopicity of Form A and Form N was investigated by DVS at 25° C. […] Form A converted to Form K after the DVS test. Form K is a metastable hydrate. It reverted back to Form A after exposure to ambient condition.
Hygroscopicity of the free base Pattern A* and the urea cocrystal Form P were evaluated by DVS at 25° C.

Data set [5] can be described thus: Competitive equilibration experiment at 25° C. The settings on record: 7 days. The class given is physicochemical. The method, then: Competitive equilibration experiments were conducted at 25° C. to investigate the thermodynamically stable anhydrate. 5 mg of Pattern G, and 5 mg of Pattern H, were added to about 200 μL of saturated solution in selected solvents. Obtained suspension was stirred at 25° C. for 7 days. Obtained suspensions were centrifuged and obtained solids were analyzed by XRPD immediately.

The nature of data set [6]: Mouse Hepatocyte Stability Assay. The settings on record: CD-1, cryopreserved hepatocytes. Format: in vitro ADME. On the procedure:
The metabolic stability of Compound 1 was evaluated using cryopreserved hepatocytes from mice, rats, dogs, cynomolgus monkeys, and humans.
50 μL of 1 mM intermediate solutions for each test compound was prepared by adding 5 μL of 10 mM stock solution to 45 μL of a 1:1 mixture of water and acetonitrile. A 2 μM working stocks for each test compound were prepared in incubation media, InvitroGRO™ KHB (Bio IVT, Westbury, NY, USA), by adding 2 μL of 1 mM intermediate stock to 998 μL of incubation media.
To thaw the hepatocytes, InvitroGRO™ HT thawing medium (BioIVT, Westbury, NY, USA) was prewarmed to 37° C., and 48 mL of warmed thawing medium was transferred to a sterile 50 mL conical tube. The hepatocyte vial was removed from the liquid nitrogen Dewar, and gently thawed in a water bath at 37° C. for 1-2 minutes, then the contents of the vial were emptied into a conical tube with prewarmed InvitroGRO HT medium. 1 mL of prewarmed InvitroGRO HT medium was added to each emptied hepatocyte vial to resuspend any remaining cells, and the contents were pipetted into the hepatocyte suspension. The tube containing the hepatocyte suspension was centrifuged at 50*g for 5 minutes. The supernatant was removed carefully, and the remaining pellet was resuspended by adding 1 mL of incubation media, InvitroGRO KHB, and gently shaking until there were no clumps.
Cell viability was determined using the trypan blue method. 25 μL of hepatocyte cell suspension was added to a trypan blue (TB) solution (containing 775 μL InvitroGRO KHB and 200 μL of Trypan Blue). Cell count was taken using a hemacytometer.
For mouse hepatocytes, 200 μL of hepatocytes (0.8×10^6 cells/mL) were added to the wells of a 48 well plate (Catalog No. 92048, TPP Techno Plastic Products AG, Trasadingen, Switzerland) and pre-incubated for 30 minutes at 37° C. For rat, dog, monkey, […], 200 μL of hepatocytes (2×10^6 cells/mL) were added to the wells of a 48 well plate (Catalog No. 92048, TPP Techno Plastic Products AG, Trasadingen, Switzerland) and pre-incubated for 30 minutes at 37° C.
For all species of hepatocytes, once the pre-incubation period was complete, 200 μL of 2 μM working stock of test compound was added to the wells of the plate, and the plate was vortexed on a Vibramax™ 100 (P/N 544-21200-00, Heidolph Instruments GmbH & Co. KG, Schwabach, Germany) at 500 rpm in a 37° C. CO2 incubator (Model No. 51026280, ThermoFisher Scientific, Waltham, MA, USA). At each time point of 0, 15, 30, 60, 90, and 120 minutes, 50 μL of incubation mixture was precipitated with 200 μL of acetonitrile containing internal standard.
At the end of the experiment, the samples were centrifuged at 4000 rpm for 10 minutes. The supernatant was collected and diluted with an equal amount of water, and vortexed for 5 minutes at 900 rpm in MixMate® (Model No. 5353, Eppendorf SE, Hamburg, Germany).
The supernatant samples were submitted for LC-MS/MS analysis.
Calculations of the results included the following: […]

The term half-life denotes the time in which the quantity being followed falls by half. Read a low half-life as fast loss.

Regarding `COc1cc(-c2cn(C)c(=O)c(C)c2C)cc(OC)c1CN1CC[C@H](N2CCN(c3ccc(N[C@H]4CCC(=O)NC4=O)cc3F)CC2)C(F)(F)C1` [Form N], the “behavior under ball milling” value in data set [1] (ball milling for 5 min) is recorded as “no obvious crystallinity decrease”. Further, the behavior under compression result in data set [1] (compression, 2 to 10 MPa) is reported as “crystallinity decrease even compressed under 2 MPa”. Besides, the XRPD result is given as “Pattern N” in data set [2] (0% RH); “Pattern N” in data set [2] (20% RH); “Pattern N” in data set [2] (40% RH (after 90% RH, falling)); “Pattern N” in data set [2] (40% RH (first step)); “Pattern N” in data set [2] (40% RH (last step, after 0% RH)); “Pattern N” in data set [2] (70% RH (after 90% RH)). The XRPD result in data set [2] (70% RH (humidity rising)) and in data set [2] (90% RH) was “Pattern N” throughout. The “physical and chemical stability” value in data set [3] (25° C./92% RH open vial, 40° C./75% RH open vial or 60° C. closed vial, 1 week) is “physically and chemically stable”. The “form change and degradation after drying” value in data set [3] (50° C. under vacuum for 2 days) is “No form change and no degradation”. Moreover, the water uptake result in data set [4] was “about 1.0%”.

On to `COc1cc(-c2cn(C)c(=O)c(C)c2C)cc(OC)c1CN1CC[C@H](N2CCN(c3ccc(N[C@H]4CCC(=O)NC4=O)cc3F)CC2)C(F)(F)C1` [Pattern G and Pattern H], for which the “XRPD after competitive equilibration at 25° C.” value in data set [5] (Acetone) is recorded as “Pattern B”; in data set [5] (Ethanol) it was “Low crystallinity, difficult to differentiate”; in data set [5] (Ethyl acetate), “Pattern F”; in data set [5] (Toluene), “Pattern G”.

`CC(C)NCC(O)COc1cccc2ccccc12` (stereo not drawn) [Propranolol, reference compound] returned a half-life at 1 µM in data set [6] of 16.3 min.
